Assay results taken from PubChem BioAssay (NCI).
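Five concentrations, 48 hours, 96-well plates. GI50 marks 50% less growth. TGI denotes the concentration required for complete inhibition of growth.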

How the values were obtained:
Experiment in all cases: NCI tumour cell line growth inhibition, 48 h
[1] = test system: 786-0 renal
[2] = test system: A498 renal
[3] = test system: A549 NSCLC
[4] = test system: ACHN renal
[5] = test system: BT-549 breast
[6] = test system: CAKI-1 renal
[7] = test system: CCRF-CEM leukemia
[8] = test system: COLO 205 colon
[9] = test system: DU-145 prostate
[10] = test system: EKVX NSCLC
[11] = test system: HCC-2998 colon
[12] = test system: HCT-116 colon
[13] = test system: HCT-15 colon
[14] = test system: HL-60(TB) leukemia
[15] = test system: HOP-62 NSCLC
[16] = test system: HOP-92 NSCLC
[17] = test system: HS 578T breast
[18] = test system: HT29 colon
[19] = test system: IGROV1 ovarian
[20] = test system: K-562 leukemia
[21] = test system: KM12 colon
[22] = test system: LOX IMVI melanoma
[23] = test system: M14 melanoma
[24] = test system: MALME-3M melanoma
[25] = test system: MCF7 breast
[26] = test system: MDA-MB-231 breast
[27] = test system: MDA-MB-435
[28] = test system: MDA-MB-468 breast
[29] = test system: MOLT-4 leukemia
[30] = test system: NCI-H226 lung
[31] = test system: NCI-H23 lung
[32] = test system: NCI-H460 lung
[33] = test system: NCI/ADR-RES ovarian
[34] = test system: OVCAR-3 ovarian
[35] = test system: OVCAR-4 ovarian
[36] = test system: OVCAR-5 ovarian
[37] = test system: OVCAR-8 ovarian
[38] = test system: PC-3 prostate
[39] = test system: RPMI-8226 leukemia
[40] = test system: RXF 393 renal
[41] = test system: SF-268 CNS
[42] = test system: SF-295 CNS
[43] = test system: SF-539 CNS
[44] = test system: SK-MEL-2 melanoma
[45] = test system: SK-MEL-28 melanoma
[46] = test system: SK-MEL-5 melanoma
[47] = test system: SK-OV-3 ovarian
[48] = test system: SN12C renal
[49] = test system: SNB-19 CNS
[50] = test system: SNB-75 CNS
[51] = test system: SR leukemia
[52] = test system: SW-620 colon
[53] = test system: T-47D breast
[54] = test system: TK-10 renal
[55] = test system: U251 CNS
[56] = test system: UACC-257 melanoma
[57] = test system: UACC-62 melanoma
[58] = test system: UO-31 renal
[59] = test system: NCI-H522 lung

Molecule FC(F)(F)c1cc2c(Cl)ncnc2n1CCN1CCCCC1 has a GI50 [1] of 39.8 µM, a TGI [1] greater than 100 µM and a GI50 [2] greater than 100 µM. The TGI [2] was greater than 100 µM, the GI50 [3] was 80.1 µM and the TGI [3] was greater than 100 µM. It also gave a GI50 [4] of 6.46 µM, a TGI [4] greater than 100 µM and a GI50 [5] of 15 µM. It also gave a TGI [5] of 29.8 µM, a GI50 [6] of 25.3 µM and a TGI [6] greater than 100 µM. The GI50 [7] was 11 µM, the TGI [7] was greater than 100 µM and the GI50 [8] was 52.7 µM. It also gave a TGI [8] greater than 100 µM, a GI50 [9] of 30.5 µM and a TGI [9] greater than 100 µM. It also gave a GI50 [10] of 16.3 µM, a TGI [10] of 85.5 µM and a GI50 [11] of 4.11 µM. It also gave a TGI [11] of 14.3 µM, a GI50 [12] of 4.86 µM and a TGI [12] of 20.3 µM. It also gave a GI50 [13] of 3.16 µM, a TGI [13] of 12.8 µM and a GI50 [14] of 2.07 µM. The TGI [14] was 7.47 µM, the GI50 [15] was 38.1 µM and the TGI [15] was greater than 100 µM. For the same molecule, the GI50 [16] was 19.7 µM, the TGI [16] was 53.8 µM and the GI50 [17] was 16.4 µM. The TGI [17] was 60 µM, the GI50 [18] was 21.1 µM and the TGI [18] was 81.3 µM. For the same molecule, the GI50 [19] was 2.98 µM, the TGI [19] was 10.3 µM and the GI50 [20] was 2.91 µM. It also gave a TGI [20] greater than 100 µM, a GI50 [21] of 29.8 µM and a TGI [21] greater than 100 µM. It also gave a GI50 [22] of 1.69 µM, a TGI [22] of 3.11 µM and a GI50 [23] of 12.8 µM. The TGI [23] was 33.4 µM, the GI50 [24] was 19 µM and the TGI [24] was 55.4 µM. The GI50 [25] was 19.6 µM, the TGI [25] was 76.5 µM and the GI50 [26] was 5.47 µM. It also gave a TGI [26] of 19.7 µM, a GI50 [27] of 13.1 µM and a TGI [27] of 29.9 µM. The GI50 [28] was 3.02 µM, the TGI [28] was 9.43 µM and the GI50 [29] was 10.5 µM. For the same molecule, the TGI [29] was 55.2 µM, the GI50 [30] was 60.6 µM and the TGI [30] was greater than 100 µM. The GI50 [31] was 13.9 µM, the TGI [31] was 39.3 µM and the GI50 [32] was 18.3 µM. The TGI [32] was 50.6 µM, the GI50 [33] was 24 µM and the TGI [33] was 64.8 µM. The GI50 [34] was 17.6 µM, the TGI [34] was 35.5 µM and the GI50 [35] was 28.5 µM. The TGI [35] was greater than 100 µM, the GI50 [36] was greater than 100 µM and the TGI [36] was greater than 100 µM. For the same molecule, the GI50 [37] was 12.5 µM, the TGI [37] was 32.8 µM and the GI50 [38] was 15.2 µM. It also gave a TGI [38] of 47.9 µM, a GI50 [39] of 31.5 µM and a TGI [39] greater than 100 µM. The GI50 [40] was 15.6 µM, the TGI [40] was 40.9 µM and the GI50 [41] was 16 µM. It also gave a TGI [41] of 38.6 µM, a GI50 [42] of 22.6 µM and a TGI [42] of 86.3 µM. It also gave a GI50 [43] of 17.1 µM, a TGI [43] of 36.2 µM and a GI50 [44] of 16.5 µM. It also gave a TGI [44] of 32.9 µM, a GI50 [45] of 16 µM and a TGI [45] of 37.7 µM. For the same molecule, the GI50 [46] was 14.9 µM, the TGI [46] was 31.1 µM and the GI50 [47] was 52.3 µM. For the same molecule, the TGI [47] was greater than 100 µM, the GI50 [48] was 19.4 µM and the TGI [48] was greater than 100 µM. It also gave a GI50 [49] of 15.2 µM, a TGI [49] of 31.3 µM and a GI50 [50] of 10.5 µM. The TGI [50] was 22.5 µM, the GI50 [51] was 3.28 µM and the TGI [51] was 26.1 µM. The GI50 [52] was 11.2 µM, the TGI [52] was 28.7 µM and the GI50 [53] was 21.9 µM. It also gave a TGI [53] greater than 100 µM, a GI50 [54] greater than 100 µM and a TGI [54] greater than 100 µM. For the same molecule, the GI50 [55] was 14.1 µM, the TGI [55] was 34.9 µM and the GI50 [56] was 11.8 µM. It also gave a TGI [56] of 30.4 µM, a GI50 [57] of 12.2 µM and a TGI [57] of 30.5 µM. It also gave a GI50 [58] of 1.74 µM and a TGI [58] of 3.58 µM.
For C[C@H]1[C@@H](CC(=O)N[C@@H](Cc2coc3ccccc23)B(O)O)O[C@@H]2OC3(C)CC[C@H]4[C@H](C)CC[C@@H]1[C@@]24O3, the GI50 [1] was 4.24 µM, the TGI [1] was 19.2 µM and the GI50 [2] was 4.45 µM. For the same molecule, the TGI [2] was 16.6 µM, the GI50 [3] was 3.66 µM and the TGI [3] was 18.7 µM. The GI50 [4] was 3.08 µM, the TGI [4] was greater than 100 µM and the GI50 [5] was 1.64 µM. It also gave a TGI [5] of 4.2 µM, a GI50 [6] of 4.2 µM and a TGI [6] of 23.7 µM. For the same molecule, the GI50 [7] was 2.45 µM, the TGI [7] was 12.2 µM and the GI50 [8] was 3.07 µM. For the same molecule, the TGI [8] was 12.2 µM, the GI50 [9] was 8.58 µM and the TGI [9] was 51.6 µM. The GI50 [10] was 5.01 µM, the TGI [10] was 23.6 µM and the GI50 [11] was 2.22 µM. The TGI [11] was 4.45 µM, the GI50 [12] was 2.19 µM and the TGI [12] was 5.56 µM. The GI50 [13] was 2.22 µM, the TGI [13] was 5.88 µM and the GI50 [14] was 2.25 µM. The TGI [14] was 6.84 µM, the GI50 [15] was 2.8 µM and the TGI [15] was 12.3 µM. The GI50 [16] was 3.88 µM, the TGI [16] was 15.4 µM and the GI50 [17] was 2.56 µM. The TGI [17] was 9.97 µM, the GI50 [18] was 2.27 µM and the TGI [18] was 5.36 µM. It also gave a GI50 [19] of 4.03 µM, a TGI [19] of 18.9 µM and a GI50 [20] of 3.25 µM. It also gave a TGI [20] of 22.9 µM, a GI50 [21] of 3.42 µM and a TGI [21] of 11.6 µM. It also gave a GI50 [22] of 1.83 µM, a TGI [22] of 4.34 µM and a GI50 [23] of 2.1 µM. It also gave a TGI [23] of 5.96 µM, a GI50 [24] of 1.88 µM and a TGI [24] of 6.77 µM. The GI50 [25] was 3.49 µM, the TGI [25] was 18.5 µM and the GI50 [27] was 2.06 µM. It also gave a TGI [27] of 5.03 µM, a GI50 [28] of 1.93 µM and a TGI [28] of 4.49 µM. For the same molecule, the GI50 [29] was 1.48 µM, the TGI [29] was 6.61 µM and the GI50 [30] was 1.3 µM. The TGI [30] was 2.84 µM, the GI50 [31] was 3.16 µM and the TGI [31] was 14.6 µM. For the same molecule, the GI50 [32] was 3.89 µM, the TGI [32] was 15.2 µM and the GI50 [59] was 1.82 µM. It also gave a TGI [59] of 4.26 µM, a GI50 [33] of 11.6 µM and a TGI [33] of 26.3 µM. The GI50 [34] was 3.07 µM, the TGI [34] was 11.1 µM and the GI50 [35] was 6.09 µM. The TGI [35] was greater than 100 µM, the GI50 [36] was 2.92 µM and the TGI [36] was 13.7 µM. The GI50 [37] was 9.53 µM, the TGI [37] was 24.7 µM and the GI50 [38] was 5.47 µM. For the same molecule, the TGI [38] was 40.1 µM, the GI50 [39] was 1.23 µM and the TGI [39] was 5.65 µM. It also gave a GI50 [40] of 1.53 µM, a TGI [40] of 3.47 µM and a GI50 [41] of 4.67 µM. It also gave a TGI [41] greater than 100 µM, a GI50 [42] of 1.92 µM and a TGI [42] of 6.27 µM. For the same molecule, the GI50 [43] was 1.92 µM, the TGI [43] was 4.05 µM and the GI50 [45] was 2.92 µM. It also gave a TGI [45] of 11.5 µM, a GI50 [46] of 2.29 µM and a TGI [46] of 5.48 µM. The GI50 [47] was 5.37 µM, the TGI [47] was 19.2 µM and the GI50 [48] was 4.07 µM. For the same molecule, the TGI [48] was 15.9 µM, the GI50 [49] was 6.28 µM and the TGI [49] was greater than 100 µM. The GI50 [51] was 1.48 µM, the TGI [51] was 5.16 µM and the GI50 [52] was 2.69 µM. The TGI [52] was 11.5 µM, the GI50 [53] was 3.3 µM and the TGI [53] was 16.5 µM. For the same molecule, the GI50 [54] was 2.71 µM, the TGI [54] was 8.86 µM and the GI50 [55] was 3.78 µM. For the same molecule, the TGI [55] was 15.4 µM, the GI50 [56] was 1.85 µM and the TGI [56] was 4.19 µM. For the same molecule, the GI50 [57] was 1.89 µM and the TGI [57] was 4.26 µM.
